Laboratory results reported in patent US20090291953A1, “PHAR[…] OF REBOXETINE” (Pfizer Inc, priority 2002, published 2009).

Tests used:
Assay type in all cases: physicochemical
[1] = Thermogravimetric Analysis (TGA), volatile content
Method: The volatile content measured by means of Thermogravimetric Analysis (TGA) was relevant: in fact, a weight loss of about 2% was detected upon heating showing a related thermal feature. Whereas for SS-reboxetine fumarate and succinate salts a negligible […] weight loss was measured.

[2] = DSC analyses on samples recovered after DVS tests; details: for DSC profile after equilibration at high humidity (DVS test method): maximum relative humidity of 90% at 25° C., equilibration up to 0.005%/min or no more than 360 minutes; for Modification of solid structure after DVS test (observed by DSC): tested sample after DVS sorption/desorption
Method: DSC analyses were carried out with a Perkin-Elmer DSC-7 apparatus. Aluminium DSC pans were loaded with about of 2 mg of sample. The temperature range of analysis was between 30° and 210° C. The samples were analyzed under nitrogen flow (to eliminate oxidative and pyrrolitic effects) at a heating rate of 10° C./min.
DSC analyses were executed as reported above also on the samples recovered after DVS tests, executed according to the DMSG principle. As shown below in FIG. 5, DSC profiles of SS-reboxetine succinate and fumarate salts were unchanged after equilibration at high humidity according to the DVS test method (maximum relative humidity of 90% at 25° C. and equilibration up to 0.005%/min or no more than 360 minutes).

[3] = Hygroscopicity test by Dynamic Moisture Sorption Gravimetry (DVS 1000); details: for Effects of moisture update: reversibility / retention of water uptake: DVS sorption/desorption, dependent on relative environmental humidity; for Water uptake %: 25° C.
From the text: The water uptake of succinate and fumarate salts of S,S-reboxetine was investigated by submitting a sample of such salts to a hygroscopicity test by means of a DVS 1000 (SMS) according to the principle of Dynamic Moisture Sorption Gravimetry (DMSG). The apparatus is a “controlled atmosphere microbalance” where the weighed sample is exposed to programmed variations of the relative humidity (RH) at a constant and controlled temperature. The measured parameters (weight, time and RH), reported in Excel worksheets, allowed obtaining hygroscopicity curves over the tested RH range. Multiple sorption/desorption cycles between 0% and 90% RH were performed at 25° C. Progressive variations of RH were of 10%; they were operated by the software at the equilibration of the sample weight. This condition was defined at a constant rate of percent weight variation 0.005%/min (average of 5 minutes survey). The experimental results were reported in the DVS Isotherm Reports and Isotherm Plots.
The obtained results are summarized in the Table V, reporting the water uptake expressed as percent change in mass, and FIG. 4.

[4] = listed as S,S-reboxetine mesylate

SMILES: CCOc1ccccc1O[C@@H](c1ccccc1)[C@@H]1CNCCO1.O=C(O)/C=C/C(=O)O (single isomer, unassigned) [Fumarate salt, Reboxetine S,S Enantiomer Fumarate Salt]
- Weight loss upon heating (TGA), in words [1]: negligible
- DSC profile after equilibration at high humidity (DVS test method) [2]: unchanged
- Effects of moisture update: reversibility / retention of water uptake ([3]; Fumarate Salt): Reversible water
- Effects of moisture update: reversibility / retention of water uptake ([3]; listed as fumarate salt, Fumarate Salt): reversible
- Water uptake % ([3]; Relative Humidity 20%): 0.06%
- Water uptake % ([3]; Relative Humidity 35%): 0.11%
- Water uptake % ([3]; Relative Humidity 50%): 0.16%
- Water uptake % ([3]; Relative Humidity 65%): 0.21%
- Water uptake % ([3]; Relative Humidity 80%): 0.31%
- Water uptake % ([3]; Relative Humidity 90%): 0.47%

SMILES: CCOc1ccccc1O[C@@H](c1ccccc1)[C@@H]1CNCCO1.O=C(O)CCC(=O)O (single isomer, unassigned) [Succinate salt, Reboxetine S,S Enantiomer Succinate Salt]
- Weight loss upon heating (TGA), in words [1]: negligible
- DSC profile after equilibration at high humidity (DVS test method) [2]: unchanged
- Effects of moisture update: reversibility / retention of water uptake ([3]; Succinate Salt): Reversible water
- Effects of moisture update: reversibility / retention of water uptake ([3]; listed as succinate salt, Succinate Salt): reversible
- Water uptake % ([3]; Relative Humidity 20%): 0.03%
- Water uptake % ([3]; Relative Humidity 35%): 0.06%
- Water uptake % ([3]; Relative Humidity 50%): 0.10%
- Water uptake % ([3]; Relative Humidity 65%): 0.14%
- Water uptake % ([3]; Relative Humidity 80%): 0.21%
- Water uptake % ([3]; Relative Humidity 90%): 0.29%

SMILES: CCOc1ccccc1O[C@H](c1ccccc1)[C@H]1CNCCO1.CS(=O)(=O)O [Mesylate salt, S,S-reboxetine mesylate]
- Weight loss upon heating (volatile content, TGA) [1]: about 2%
- DSC profile after equilibration at high humidity (DVS test method) [2]: complete destructuration
- Modification of solid structure after DVS test (observed by DSC) [2, 4]: solid state modification was observed
- Modification of solid structure after DVS test (observed by DSC) ([2]; listed as mesylate salt): loss of crystallinity
- Effects of moisture update: reversibility / retention of water uptake [3]: Retention of water
- Effects of moisture update: reversibility / retention of water uptake [3, 4]: only partially eliminated
- Water uptake retained after re-equilibration ([3]; DVS, after re-equilibration): about 4%
- Amount of water adsorbed (uptake) in hygroscopicity test ([3]; DVS, at 90% RH printed for mesylate salt): up to 9%
- Desorption Cycle Water content % (percent change in mass) ([3]; Relative Humidity 0%): 4.3%
- Sorption Cycle Water content % (percent change in mass) ([3]; Relative Humidity 0%): 0.0%
- Desorption Cycle Water content % (percent change in mass) ([3]; Relative Humidity 20%): 4.5%
- Sorption Cycle Water content % (percent change in mass) ([3]; Relative Humidity 20%): 0.5%
- Desorption Cycle Water content % (percent change in mass) ([3]; Relative Humidity 35%): 4.6%
- Sorption Cycle Water content % (percent change in mass) ([3]; Relative Humidity 35%): 0.6%
- Desorption Cycle Water content % (percent change in mass) ([3]; Relative Humidity 50%): 4.6%
- Sorption Cycle Water content % (percent change in mass) ([3]; Relative Humidity 50%): 0.7%
- Desorption Cycle Water content % (percent change in mass) ([3]; Relative Humidity 65%): 4.6%
- Sorption Cycle Water content % (percent change in mass) ([3]; Relative Humidity 65%): 0.9%
- Desorption Cycle Water content % (percent change in mass) ([3]; Relative Humidity 80%): 4.7%
- Sorption Cycle Water content % (percent change in mass) ([3]; Relative Humidity 80%): 4.5%
- Desorption Cycle Water content % (percent change in mass) ([3]; Relative Humidity 90%): 8.7%
- Sorption Cycle Water content % (percent change in mass) ([3]; Relative Humidity 90%): 8.7%
- Effects of moisture update: change in crystalline form ([3]; after water uptake in DVS test): Irreversible change
